Data taken from PubChem BioAssay AID296 (DTP/NCI, 2004).
Values joined by “and” are separate entries in the source; they are usually repeats but may differ in a detail not shown here. Equal entries are not always repeated. Inconclusive results are not listed.

Tested on: MX-1 breast xenograft, nude mice, tumor weight T/C
Test: NCI In Vivo Anticancer Drug Screen. Data for tumor model Human Mammary Carcinoma MX-1 Xenograft (intrarenal inoculation) in NU/NU Swiss (nude) mice
Conditions: endpoint: mean tumor weight change, higher = larger tumour
In short: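 Mice carrying the implanted tumor receive either test agent or vehicle. Tumor size or survival is then recorded for both groups. Results are stated as the treated-to-control quotient.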

[1] = dose: 100.0 mg/kg/injection, schedule: Q04DX003 (sc), vehicle: saline with Tween-80
[2] = dose: 200.0 mg/kg/injection, schedule: Q04DX003 (sc), vehicle: saline with Tween-80
[3] = dose: 150.0 mg/kg/injection, schedule: Q04DX003 (ip), vehicle: saline with Tween-80
[4] = dose: 300.0 mg/kg/injection, schedule: Q04DX003 (ip), vehicle: saline with Tween-80

## COc1cc(C2c3cc4c(cc3C(O)C(CO)C2CO)OCO4)cc(OC)c1OC (centres undefined)
[1]
  T/C: 109 % of control
[2]
  T/C: 97 % of control
dose: 400.0 mg/kg/injection, schedule: Q04DX003 (sc), vehicle: saline with Tween-80
  T/C: 106 % of control
dose: 800.0 mg/kg/injection, schedule: Q04DX003 (sc), vehicle: saline with Tween-80
  T/C: 86 % of control

## CN(C)c1ccc2c(NCCCCCCNc3ccnc4cc(N(C)C)ccc34)ccnc2c1
dose: 37.5 mg/kg/injection, schedule: Q04DX003 (sc), vehicle: distilled water + Tween-80 + alcohol
  T/C: 72 % of control
dose: 75.0 mg/kg/injection, schedule: Q04DX003 (sc), vehicle: distilled water + Tween-80 + alcohol
  T/C: 63 % of control and 64 % of control
dose: 600.0 mg/kg/injection, schedule: Q04DX003 (sc), vehicle: distilled water + Tween-80 + alcohol
  T/C: 34 % of control and 54 % of control

## C[N+](C)(C)c1cc2c(nn1)Nc1ccccc1S2
dose: 50.0 mg/kg/injection, schedule: Q01DX010 (sc), vehicle: Klucel (hydroxypropylcellulose) (HPC)
  T/C: 74 % of control
dose: 100.0 mg/kg/injection, schedule: Q01DX010 (sc), vehicle: Klucel (hydroxypropylcellulose) (HPC)
  T/C: 240 % of control and 272 % of control

## O=C(Nc1ccc(C2=NCCN2)cc1)c1ccc(C(=O)Nc2ccc(C3=NCCN3)cc2)c(Cl)c1
dose: 75.0 mg/kg/injection, schedule: Q04DX003 (sc), vehicle: water
  T/C: 81 % of control
dose: 150.0 mg/kg/injection, schedule: Q04DX003 (sc), vehicle: water
  T/C: 49 % of control
dose: 300.0 mg/kg/injection, schedule: Q04DX003 (sc), vehicle: water
  T/C: 21 % of control

## CC(=O)OCC1OC([S-])C(OC(C)=O)C(OC(C)=O)C1OC(C)=O.CC[PH+](CC)CC.CC[PH+](CC)CC.[Au].[Au] (centres undefined)
dose: 0.32 mg/kg/injection, schedule: Q04DX003 (sc), vehicle: Klucel (hydroxypropylcellulose) (HPC)
  T/C: 88 % of control
dose: 0.63 mg/kg/injection, schedule: Q04DX003 (sc), vehicle: Klucel (hydroxypropylcellulose) (HPC)
  T/C: 112 % of control
dose: 1.25 mg/kg/injection, schedule: Q04DX003 (sc), vehicle: Klucel (hydroxypropylcellulose) (HPC)
  T/C: 100 % of control
dose: 2.5 mg/kg/injection, schedule: Q04DX003 (sc), vehicle: Klucel (hydroxypropylcellulose) (HPC)
  T/C: 87 % of control

## COC1C(N)C(OC2C(Oc3cccc4c(O)c5c(=O)oc6ccc(C)c7c(=O)oc(c34)c5c67)OC(C)C(O)C2(C)O)OC(C)C1O (centres undefined)
dose: 2.5 mg/kg/injection, schedule: Q04DX003 (ip), vehicle: lactic acid
  T/C: 51 % of control
dose: 5.0 mg/kg/injection, schedule: Q04DX003 (ip), vehicle: lactic acid
  T/C: 49 % of control
dose: 10.0 mg/kg/injection, schedule: Q04DX003 (ip), vehicle: lactic acid
  T/C: 9 % of control

## CC(=O)N(C)c1ccc(Nc2cc(C)[nH]c3ccc4ncnc4c23)cc1
dose: 50.0 mg/kg/injection, schedule: Q04DX003 (sc), vehicle: saline with Tween-80
  T/C: 102 % of control
[1]
  T/C: 84 % of control
[2]
  T/C: 69 % of control

## C=CC(=O)NCNC(=O)C=C
dose: 50.0 mg/kg/injection, schedule: Q01DX010 (sc), vehicle: saline
  T/C: 82 % of control
dose: 100.0 mg/kg/injection, schedule: Q01DX010 (sc), vehicle: saline
  T/C: 91 % of control

## c1ccc([Te][Te]c2ccccc2)cc1
dose: 75.0 mg/kg/injection, schedule: Q04DX003 (ip), vehicle: saline with Tween-80
  T/C: 117 % of control
[3]
  T/C: 80 % of control
[4]
  T/C: 91 % of control

## O=c1n(CC2CO2)c(=O)n(CC2CO2)n1CC1CO1 (centres undefined)
dose: 9.38 mg/kg/injection, schedule: Q04DX003 (sc), vehicle: saline
  T/C: 57 % of control
dose: 18.7 mg/kg/injection, schedule: Q04DX003 (sc), vehicle: saline
  T/C: 4 % of control
dose: 18.75 mg/kg/injection, schedule: Q04DX003 (sc), vehicle: saline
  T/C: 2 % of control
dose: 29.0 mg/kg/injection, schedule: Q04DX003 (sc), vehicle: saline
  T/C: -11 % of control
dose: 37.5 mg/kg/injection, schedule: Q04DX003 (sc), vehicle: saline
  T/C: -83 % of control and -73 % of control

## Oc1ccc(SCc2ccc(NCc3ccccc3)cc2)cc1
dose: 25.0 mg/kg/injection, schedule: Q01DX010 (sc), vehicle: saline with Tween-80
  T/C: 104 % of control
dose: 50.0 mg/kg/injection, schedule: Q01DX010 (sc), vehicle: saline with Tween-80
  T/C: 46 % of control
dose: 100.0 mg/kg/injection, schedule: Q01DX010 (sc), vehicle: saline with Tween-80
  T/C: 92 % of control
dose: 200.0 mg/kg/injection, schedule: Q01DX010 (sc), vehicle: saline with Tween-80
  T/C: 74 % of control
dose: 400.0 mg/kg/injection, schedule: Q01DX010 (sc), vehicle: saline with Tween-80
  T/C: 55 % of control
dose: 800.0 mg/kg/injection, schedule: Q01DX010 (sc), vehicle: saline with Tween-80
  T/C: 94 % of control

## Cn1ccc(=Nc2ccc(NC(=O)c3ccc(N=c4ccn(C)c5ccc([N+](=O)[O-])cc45)cc3[N+](=O)[O-])cc2)cc1
dose: 300.0 mg/kg/injection, schedule: Q04DX003 (sc), vehicle: saline + Tween-80 + alcohol
  T/C: 123 % of control
dose: 1200.0 mg/kg/injection, schedule: Q04DX003 (sc), vehicle: saline + Tween-80 + alcohol
  T/C: 117 % of control
dose: 2400.0 mg/kg/injection, schedule: Q04DX003 (sc), vehicle: saline + Tween-80 + alcohol
  T/C: 69 % of control

## CC1/C=C/C=C/CC/C=C/C=C/C=C/C=C/C(OC2OC(C)C(O)C(N)C2O)CC2OC(CC(O)C(O)CCC(O)CC(O)CC(O)CC(=O)OC(C)C(C)C1O)CC(O)C2C(=O)O (centres undefined)
[3]
  T/C: 59 % of control
[4]
  T/C: 55 % of control

## COCC(O)Cn1ccnc1[N+](=O)[O-] (centres undefined)
dose: 300.0 mg/kg/injection, schedule: Q04DX003 (sc), vehicle: suspension in saline
  T/C: 202 % of control
dose: 600.0 mg/kg/injection, schedule: Q04DX003 (sc), vehicle: suspension in saline
  T/C: 95 % of control
dose: 1200.0 mg/kg/injection, schedule: Q04DX003 (sc), vehicle: suspension in saline
  T/C: 108 % of control

## [N-]=[N+]=CC(=O)CCC(=O)C=[N+]=[N-]
dose: 3.0 mg/kg/injection, schedule: Q01DX010 (sc), vehicle: DMSO
  T/C: -72 % of control
dose: 6.0 mg/kg/injection, schedule: Q01DX010 (sc), vehicle: DMSO
  T/C: -42 % of control
dose: 12.0 mg/kg/injection, schedule: Q01DX010 (sc), vehicle: DMSO
  T/C: 5 % of control
dose: 15.0 mg/kg/injection, schedule: Q04DX003 (sc), vehicle: DMSO
  T/C: 6 % of control
dose: 15.0 mg/kg/injection, schedule: Q04DX003 (sc), vehicle: saline
  T/C: 23 % of control
dose: 30.0 mg/kg/injection, schedule: Q04DX003 (sc), vehicle: DMSO
  T/C: 3 % of control
dose: 30.0 mg/kg/injection, schedule: Q04DX003 (sc), vehicle: saline
  T/C: 16 % of control
dose: 60.0 mg/kg/injection, schedule: Q04DX003 (sc), vehicle: saline
  T/C: 6 % of control
dose: 120.0 mg/kg/injection, schedule: Q04DX003 (sc), vehicle: DMSO
  T/C: -13 % of control
dose: 120.0 mg/kg/injection, schedule: Q04DX003 (sc), vehicle: saline
  T/C: 8 % of control

## CC1(C)CC23C4COC(=O)C2CCC1C3CC4=O (centres undefined)
dose: 300.0 mg/kg/injection, schedule: Q04DX003 (sc), vehicle: DMSO
  T/C: 108 % of control
dose: 600.0 mg/kg/injection, schedule: Q04DX003 (sc), vehicle: DMSO
  T/C: 82 % of control
dose: 1200.0 mg/kg/injection, schedule: Q04DX003 (sc), vehicle: DMSO
  T/C: 104 % of control
dose: 2400.0 mg/kg/injection, schedule: Q04DX003 (sc), vehicle: DMSO
  T/C: 74 % of control

## CSc1cc(C)[o+]c(C)c1
dose: 25.0 mg/kg/injection, schedule: Q04DX003 (sc), vehicle: Klucel (hydroxypropylcellulose) (HPC)
  T/C: 76 % of control
dose: 50.0 mg/kg/injection, schedule: Q04DX003 (sc), vehicle: Klucel (hydroxypropylcellulose) (HPC)
  T/C: 68 % of control
dose: 100.0 mg/kg/injection, schedule: Q04DX003 (sc), vehicle: Klucel (hydroxypropylcellulose) (HPC)
  T/C: 54 % of control
dose: 200.0 mg/kg/injection, schedule: Q04DX003 (sc), vehicle: Klucel (hydroxypropylcellulose) (HPC)
  T/C: 36 % of control

## CCCCCCCC(=O)OCC(=O)[C@]1(O)Cc2c(O)c3c(c(O)c2[C@@H](OC2CC(N)C(O)C(C)O2)C1)C(=O)c1c(OC)cccc1C3=O (some centres undefined)
dose: 4.0 mg/kg/injection, schedule: Q01DX010 (sc), vehicle: suspension in saline
  T/C: 17 % of control
dose: 8.0 mg/kg/injection, schedule: Q01DX010 (sc), vehicle: suspension in saline
  T/C: 2 % of control

## C=Cc1cnc([N+](=O)[O-])n1C
dose: 150.0 mg/kg/injection, schedule: Q04DX003 (sc), vehicle: Klucel (hydroxypropylcellulose) (HPC)
  T/C: 72 % of control
dose: 300.0 mg/kg/injection, schedule: Q04DX003 (sc), vehicle: Klucel (hydroxypropylcellulose) (HPC)
  T/C: 78 % of control
dose: 600.0 mg/kg/injection, schedule: Q04DX003 (sc), vehicle: Klucel (hydroxypropylcellulose) (HPC)
  T/C: 54 % of control
